Tests used:
[1] = system: brains, heart, liver, muscle, and DRG of the NHPs; test: Maturation of TTM-001 and TTM-002 capsids, NGS enrichment in NHP tissues; type: in vivo; settings: relative to AAV9 control
Summary of the method: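 Variants carry mutations within and flanking the loop IV peptide insert: positions 450–466 were triplet-randomized, while positions 449–466 received low-frequency point mutations. The combined pool went into two NHPs, and each peptide was scored by NGS enrichment ratio against AAV9.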

[2] = system: brain; test: Matured TTM-001 and TTM-002 variants, NGS enrichment in mouse brain; type: in vivo, mice; settings: relative to AAV9 control
[3] = NGS fold-enrichment of matured AAV capsid variants, NHP brain, RNA
[4] = NGS fold-enrichment, DRG of NHPs
[5] = NGS fold-enrichment, RNA, brain of NHPs
[6] = NGS fold-enrichment, heart of NHPs
[7] = NGS fold-enrichment, liver DNA of NHPs
[8] = NGS fold-enrichment, liver RNA of NHPs
[9] = NGS fold-enrichment, muscle of NHPs
[10] = NGS fold-enrichment, brain of mice

Row | Sequence | Fold Enrichment relative to AAV9, Brain (NHP) [1, 3] [fold] | Fold Enrichment relative to AAV9, DRG (NHP) ([1]; NHP DRG) [fold] | Fold Enrichment relative to AAV9, Heart (NHP) ([1]; NHP heart) [fold] | Fold Enrichment relative to AAV9, Liver DNA (NHP) ([1]; NHP liver, DNA) [fold] | Fold Enrichment relative to AAV9, Liver RNA (NHP) ([1]; NHP liver, RNA) [fold] | Fold Enrichment relative to AAV9, Muscle (NHP) ([1]; NHP muscle) [fold] | Fold Enrichment relative to AAV9, Brain (Mouse) ([2]; mouse brain) [fold] | Fold Enrichment relative to AAV9, DRG (NHP) [1, 4] [fold] | Fold Enrichment relative to AAV9, Brain (NHP) [1, 5] [fold] | Fold Enrichment relative to AAV9, Heart (NHP) [1, 6] [fold] | Fold Enrichment relative to AAV9, Liver DNA (NHP) [1, 7] [fold] | Fold Enrichment relative to AAV9, Liver RNA (NHP) [1, 8] [fold] | Fold Enrichment relative to AAV9, Muscle (NHP) [1, 9] [fold] | Fold Enrichment relative to AAV9, Brain (Mouse) [2, 10] [fold] | other results
1 | KTINGSGSPHSKAQRMST | 58.435 | 0.192 | 0.037 | 0.882 | 1.707 | 0.000 | 53.414 |  |  |  |  |  |  |  | 
2 | KTINGSGSPHSKAQRTCT | 57.863 | 0.000 | 0.140 | 1.716 | 1.855 | 0.129 | 90.146 |  |  |  |  |  |  |  | 
3 | KTINGSGSPHSKAQRTMT |  |  |  |  |  |  |  | 0.000 | 80.388 | 0.022 | 1.025 | 1.812 | 0.170 | 100.248 | Fold Enrichment relative to AAV9, Brain (NHP) ([1]; NGS fold-enrichment of RNA, NHP brain): 80.388 fold; Fold Enrichment relative to AAV9, DRG (NHP) ([1]; NGS fold-enrichment, NHP DRG): 0.000 fold; Fold Enrichment relative to AAV9, Heart (NHP) ([1]; NGS fold-enrichment, NHP heart): 0.022 fold; Fold Enrichment relative to AAV9, Liver DNA (NHP) ([1]; NGS fold-enrichment, NHP liver DNA): 1.025 fold; Fold Enrichment relative to AAV9, Liver RNA (NHP) ([1]; NGS fold-enrichment, NHP liver RNA): 1.812 fold; Fold Enrichment relative to AAV9, Muscle (NHP) ([1]; NGS fold-enrichment, NHP muscle): 0.170 fold; Fold Enrichment relative to AAV9, Brain (Mouse) ([2]; NGS fold-enrichment, mouse brain): 100.248 fold
4 | KTINGSGSPHSKAQSAHT | 51.569 | 0.068 | 0.070 | 0.249 | 0.589 | 0.000 | 79.498 |  |  |  |  |  |  |  | 
5 | KTINGSGSPHSKAQSKVT | 56.373 | 0.000 | 0.050 | 0.390 | 1.021 | 0.014 | 76.115 |  |  |  |  |  |  |  | 
6 | KTINGSGSPHSKAQSLQI | 53.778 | 0.000 | 0.186 | 0.047 | 0.022 | 0.000 | 51.543 |  |  |  |  |  |  |  | 
7 | KTINGSGSPHSKAQSPPT |  |  |  |  |  |  |  | 0.069 | 71.632 | 0.047 | 0.425 | 0.179 | 0.274 | 97.111 | 
8 | KTINGSGSPHSKAQSQQL |  |  |  |  |  |  |  | 0.000 | 70.539 | 0.000 | 0.041 | 0.000 | 0.000 | 51.126 | 
9 | KTINGSGSPHSKAQSTMT | 51.249 | 0.018 | 0.002 | 0.341 | 0.321 | 0.002 | 73.213 |  |  |  |  |  |  |  | 
10 | KTINGSGSPHSKAQSVHT | 53.226 | 0.000 | 0.004 | 0.217 | 0.446 | 0.000 | 76.110 |  |  |  |  |  |  |  | 
11 | KTINGSGSPHSKAQTPPT |  |  |  |  |  |  |  | 0.010 | 64.657 | 0.015 | 0.207 | 0.200 | 0.014 | 54.179 | 
